{
  "source": "patent US10280416B1",
  "about": "“Magnetic ionic liquids, methods of making and uses thereof as solvents in the extraction and preservation of nucleic acids” (The University of Toledo, priority 2015, dated 2019)",
  "key": {"[1]": {"experiment": "effective magnetic moment, Evans magnetic susceptibility balance", "type": "physicochemical", "conditions": "measured at 295K", "excerpt": "The paramagnetic properties of MILs provide a unique advantage over conventional ILs by permitting control over substrate motion through the application of an external magnetic field. […] The general expression for molar magnetic susceptibility using the Evans balance is shown in eq 1:\n[formula] where XM represents the molar magnetic susceptibility, Cbal is the balance calibration constant, L corresponds to the length of the sample in the tube, M is the molecular weight of the compound being measured, R is the instrument reading for the sample in the tube, Ro is the instrument reading for the empty sample tube, and m is the mass of sample introduced into the Evan's balance. From XM, it is possible to calculate μeff according to eq 2: μeff=2.83√{square root over (XMT)} (2) where T is the absolute temperature. […] In order to increase the magnetic susceptibility of MILs, multiple paramagnetic iron(III) centers were incorporated into the MIL structure. […] The iron(III)-based MILs represent an inexpensive and useful alternative to MILs based on lanthanides, such as Dy(III) (μeff=10.6 μB). Moreover, the higher response of MILs 10 and 11 toward magnetic fields enables the use of smaller magnets with lower field strength for their manipulation in solution, which is useful in miniaturized magnet-based systems."}, "[2]": {"experiment": "solubility of MILs in water", "type": "physicochemical", "excerpt": "Independent of the substituent functional groups imparted by the quaternization reaction, MILs 1-3 were immiscible with water at compositions as low as 0.1% (w/v) MIL. The hydrophobic properties of the monocationic MILs are thus useful for applications such as aqueous liquid-liquid microextractions, where extremely low phase ratios of extraction solvent are employed."}, "[3]": {"molecular_target": "T1, albumin from chicken egg white (Gallus gallus, UniProt P01012)", "T1 construct": "albumin from chicken egg white; purchased Sigma-Aldrich (St. Louis, Mo., USA); host or cells: chicken egg white (natural source)", "T1 sequence (P01012 1-386)": "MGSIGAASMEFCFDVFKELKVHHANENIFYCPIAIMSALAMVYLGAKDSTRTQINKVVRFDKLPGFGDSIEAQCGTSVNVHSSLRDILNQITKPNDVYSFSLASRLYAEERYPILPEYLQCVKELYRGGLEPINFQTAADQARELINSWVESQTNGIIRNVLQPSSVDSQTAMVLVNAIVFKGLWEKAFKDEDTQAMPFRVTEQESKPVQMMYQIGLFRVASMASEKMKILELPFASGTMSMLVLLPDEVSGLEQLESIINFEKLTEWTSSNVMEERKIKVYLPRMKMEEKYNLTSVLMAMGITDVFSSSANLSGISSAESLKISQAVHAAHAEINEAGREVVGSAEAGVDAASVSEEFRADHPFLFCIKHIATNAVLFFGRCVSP", "experiment": "MIL-based DDE, coextraction of protein from stDNA/albumin matrix", "conditions": "pH 4.4; albumin 3.4 μM, stDNA 4.17 nM", "procedure": "High performance liquid chromatography with UV detection was performed on a LC-20A liquid chromatograph (Shimadzu, Japan) consisting of two LC-20AT pumps, a SPD-20 UV/vis detector, and a DGU-20A3 degasser. Chromatographic separations were performed on a 35 mm×4.6 mm i.d.×2.5 μm TSKgel DEAE-NPR anion exchange column with a 5 mm×4.6 mm i.d.×5 μm TSKgel DEAE-NPR guard column from Tosoh Bioscience (King of Prussia, Pa.). The column was equilibrated with a mobile phase composition of 50:50 (A) 20 mM Tris-HCl (pH 8), and (B) 1 M NaCl/20 mM Tris-HCl (pH 8). For stDNA analysis, gradient elution was performed beginning with 50% mobile phase B and increased to 100% B over 10 min. In the separation of ssDNA as well as DNA and albumin, the column was first equilibrated with 20 mM Tris-HCl followed by gradient elution from 0% to 50% B over 10 min and then 50% to 100% B over 5 min. A flow rate of 1 mL min−1 was used for all HPLC separations. DNA and albumin were detected at 260 and 280 nm, respectively.\nSample matrices containing either metal ions or protein (albumin) were prepared from stock solutions. A sample solution containing 388 mM NaCl, 153 mM KCl, 38.1 mM CaCl2.2H2O, 28.3 mM MgCl2.6H2O, and 4.17 nM stDNA was extracted in triplicate using MIL-based DDE for all three MILs. For experiments involving protein as a matrix component, the samples were prepared at an albumin concentration of 3.4 μM and stDNA concentration of 4.17 nM with the pH varied from 3.5 to 8."}, "[4]": {"experiment": "solubility of MILs in hexanes", "type": "physicochemical"}, "[5]": {"experiment": "thermal stability by thermal gravimetric analysis (TGA)", "conditions": "temperature at which 5 wt % loss of MIL is observed"}},
  "data": [
    {"compound": "CCCCCCCC[N+](CCCCCCCC)(CCCCCCCC)Cc1cccc(OC)c1.[Cl][Fe-]([Cl])([Cl])[Br]", "note": "[MIL 2]", "values": [
      {"measurement": "μeff (effective magnetic moment)", "setting": "[1]", "value": 5.60, "unit": "μB"},
      {"measurement": "solubility in water", "setting": "[2]", "value": "I^d (Insoluble at 0.1% (w/v))"}
    ]},
    {"compound": "CCCCCCCC[N+](CCCCCCCC)(CCCCCCCC)Cc1ccc(C(C)(C)C)cc1.[Cl][Fe-]([Cl])([Cl])[Br]", "note": "[MIL 3]", "values": [
      {"measurement": "μeff (effective magnetic moment)", "setting": "[1]", "value": 5.68, "unit": "μB"},
      {"measurement": "solubility in water", "setting": "[2]", "value": "I^d (Insoluble at 0.1% (w/v))"}
    ]},
    {"compound": "CCCCCCCCCCCCCCCCn1cc[n+](CCCCCCCCCCCC[n+]2ccn(CCCCCCCCCCCCCCCC)c2C)c1C.O=S(=O)([N-]S(=O)(=O)C(F)(F)F)C(F)(F)F.[Cl][Fe-]([Cl])([Cl])[Br]", "note": "[MIL 4b]", "values": [
      {"measurement": "μeff (effective magnetic moment)", "setting": "[1]", "value": 5.37, "unit": "μB"},
      {"measurement": "solubility in water", "setting": "[2]", "value": "I^e (Insoluble at 0.25% (w/v))"}
    ]},
    {"compound": "CCCCCCCCCCCCCCCCn1c[n+](CCCCCCCCCCCC[n+]2cn(CCCCCCCCCCCCCCCC)c3ccccc32)c2ccccc21.O=S(=O)([N-]S(=O)(=O)C(F)(F)F)C(F)(F)F.[Cl][Fe-]([Cl])([Cl])[Br]", "note": "[MIL 6]", "values": [
      {"measurement": "μeff (effective magnetic moment)", "setting": "[1]", "value": 5.69, "unit": "μB"},
      {"measurement": "albumin extraction efficiency", "setting": "[3]", "value": "~40", "unit": "%"},
      {"measurement": "solubility in water", "setting": "[2]", "value": "Id"}
    ]},
    {"compound": "CCCCCCCCCCCCCCCCn1c[n+](CCCCCCCCCCCC[n+]2cn(CCCCCCCCCCCCCCCC)c3ccccc32)c2ccccc21.[Cl][Fe-]([Cl])([Cl])[Br].[Cl][Fe-]([Cl])([Cl])[Br]", "note": "[MIL 6c]", "values": [
      {"measurement": "μeff (effective magnetic moment)", "setting": "[1]", "value": 7.58, "unit": "μB"},
      {"measurement": "solubility in water", "setting": "[2]", "value": "I^e (Insoluble at 0.25% (w/v))"}
    ]},
    {"compound": "O=S(=O)([N-]S(=O)(=O)C(F)(F)F)C(F)(F)F.[Cl][Fe-]([Cl])([Cl])[Br].c1ccc(Cn2c[n+](CCCCCCCCCCCC[n+]3cn(Cc4ccccc4)c4ccccc43)c3ccccc32)cc1", "note": "[MIL 7]", "values": [
      {"measurement": "μeff (effective magnetic moment)", "setting": "[1]", "value": 5.45, "unit": "μB"},
      {"measurement": "solubility in water", "setting": "[2]", "value": "I^d (Insoluble at 0.1% (w/v))"}
    ]},
    {"compound": "CCCCCCCCCCCCCCCCn1c[n+](CCCCCCCCCCCC[n+]2ccn(Cc3ccccc3)c2)c2ccccc21.O=S(=O)([N-]S(=O)(=O)C(F)(F)F)C(F)(F)F.[Cl][Fe-]([Cl])([Cl])[Br]", "note": "[MIL 8]", "values": [
      {"measurement": "μeff (effective magnetic moment)", "setting": "[1]", "value": 5.30, "unit": "μB"},
      {"measurement": "solubility in water", "setting": "[2]", "value": "I^d (Insoluble at 0.1% (w/v))"}
    ]},
    {"compound": "CCCCCCCCSCCC[n+]1ccn(Cc2cc(Cn3cc[n+](CCCSCCCCCCCC)c3)cc(Cn3cc[n+](CCCSCCCCCCCC)c3)c2)c1.[Cl][Fe-]([Cl])([Cl])[Br].[Cl][Fe-]([Cl])([Cl])[Br].[Cl][Fe-]([Cl])([Cl])[Br]", "note": "[MIL 11]", "values": [
      {"measurement": "μeff (effective magnetic moment)", "setting": "[1]", "value": 11.76, "unit": "μB"},
      {"measurement": "solubility in water", "setting": "[2]", "value": "I^e (Insoluble at 0.25% (w/v))"}
    ]},
    {"compound": "CCCCCCCCCCCCCC[P+](CCCCCC)(CCCCCC)CCCCCC.[Cl][Fe-]([Cl])([Cl])[Cl]", "note": "[[P6,6,6,14+][FeCl4−], trihexyl(tetradecyl)phosphonium tetrachloroferrate(III), reference compound]", "values": [
      {"measurement": "albumin extraction efficiency", "setting": "[3]", "value": "~40", "unit": "%"}
    ]},
    {"compound": "benzyltrioctylammonium bromotrichloroferrate(III) [MIL 1]", "values": [
      {"measurement": "solubility in hexanes", "setting": "[4]", "value": "I"},
      {"measurement": "μeff (effective magnetic moment)", "setting": "[1]", "value": 5.26, "unit": "μB"},
      {"measurement": "thermal stability", "setting": "[5]", "value": 258, "unit": "°C"},
      {"measurement": "albumin extraction efficiency", "setting": "[3]", "value": 5.0, "unit": "%"},
      {"measurement": "solubility in water", "setting": "[2]", "value": "I^d (Insoluble at 0.1% (w/v))"}
    ]}
  ]
}
